# Data published in BindingDB's records for doi:10.1016/0014-2999(96)00122-7 (Synaptic Pharmaceutical, 1996).
# Target: 5-hydroxytryptamine receptor 4 (Rattus norvegicus, UniProt Q62758)
# Sequence (Q62758 whole entry): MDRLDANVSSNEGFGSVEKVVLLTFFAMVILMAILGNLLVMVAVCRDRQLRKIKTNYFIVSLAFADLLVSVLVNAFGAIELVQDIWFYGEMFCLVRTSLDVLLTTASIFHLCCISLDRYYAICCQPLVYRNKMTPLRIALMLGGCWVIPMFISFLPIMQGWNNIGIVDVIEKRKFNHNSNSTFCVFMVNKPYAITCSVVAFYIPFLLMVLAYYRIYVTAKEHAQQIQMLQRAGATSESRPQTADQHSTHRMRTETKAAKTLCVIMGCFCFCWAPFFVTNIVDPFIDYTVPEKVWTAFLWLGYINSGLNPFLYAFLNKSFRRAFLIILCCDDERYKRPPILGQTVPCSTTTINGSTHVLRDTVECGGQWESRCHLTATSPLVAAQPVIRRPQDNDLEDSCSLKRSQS
row,Structure (SMILES),Ki [nM]
1,CN1C2CCC1CC(OC(=O)c1c[nH]c3ccccc13)C2 (stereo unspecified),159
2,COc1cc(N)c(Cl)cc1C(=O)NC1CCN(CCCOc2ccc(F)cc2)CC1OC (stereo unspecified) [4-amino-5-chloro-N-(1-(3-(4-fluorophenoxy)propyl)-3-methoxypiperidin-4-yl)-2-methoxybenzamide],25
3,"Cn1cc(CCN)c2cc(O)ccc21 [5-HT,omega-N-Me]",263
4,COc1cc(N)c(Cl)cc1C(=O)NC1CCN2CCCC1C2 (stereo unspecified) [NSC_3035240],27
5,NCCc1c[nH]c2ccc(C(N)=O)cc12 [[3H]-5-carboxamidotryptamine],1000
6,"COc1ccc2[nH]cc(CCN)c2c1 [tryptamine, 5-Methoxy]",112
